This note sets out measurements from patent US20230143604A1, “QW DOSING OF GIP RECEPTOR AGONIST PEPTIDE COMPOUNDS AND USES THEREOF” (TAKEDA PHARMACEUTICAL COMPANY LIMITED, priority 2020, published 2023).

Like-named read-outs stand apart in the source and are kept apart here.

One series deals with female beagle dogs. The series is described as follows: PYY-1119-induced vomiting in dogs. The class given is in vivo. Conditions: 3 nmol/kg s.c., 72 hours post-dose (lower line). Here is the method:
The GIPR agonist peptide compounds of the present disclosure or vehicle (0.09% [w/v] Tween 80/10% DMSO/PBS) were administered subcutaneously (sc) at 3-10 nmol/kg to female beagle dogs (10 months old), followed by sc injections with Y2R agonist ((4-imidazolecarbonyl-Ser-D-Hyp-Iva-Pya(4)-Cha-Leu(Me)-Asn-Lys-Aib-Thr-Arg-Gln-Arg-Cha-NH2), […]), […]) at 1 hour or specified hours in the table postdose. Emetic episodes were counted for 2 hours after administration (by blinded analysis).

The next series deals with Dogs. The class given is in vivo. To be noted: 30 nmol/kg s.c. The protocol:
Dogs are transferred to an observation cage (700 mm W×700 mm D×700 mm H [W×D×H], without food) on 1 day before each apomorphine challenge. The dogs are weighed by using an electronic balance then test peptide compounds and vehicle will be administrated via the subcutaneous route. Apomorphine is challenged at 8 hr after the administration and emetic events will be monitored for 1 h by video recording. The second apomorphine challenge will be 72 hr after the administration and emetic events will be recorded by the same protocol. Emesis symptoms are continuously recorded using a video camera and stored on a blue ray disc. Observation of symptoms include retching (a rhythmic contraction of the abdomen) and vomiting (vomiting behavior, including the elimination of vomitus or similar behavior). Besides, the combination of retching and vomiting is defined as emesis, and the number of episodes, latency (time elapsed from morphine administration until the onset of the first emesis symptom), duration (time elapsed between the onset of the first and final episodes of emesis), and frequency (number of animals showing emesis/number of experimental animals) of each of these symptoms is calculated. The latency in cases where emesis symptoms are not noted is taken as the maximum value (1 h for apomorphine challenge) at the end of observation. When the duration of the emesis symptoms is less than 1 min, the duration is recorded, for convenience, as 1 min.

A short description of a further series: physchem. Put shortly:
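3 mg of peptide treated with 100 μL portions of 200 mM phosphate buffer pH 7.4, sonicating/vortexing up to 1 min, with further buffer added until fully dissolved. Solubility then quantified by HPLC.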

Series [1] in a line: Pharmacokinetics in dog after IV and SC dosing. To be noted: in vivo, 3 nmol/kg. Put shortly: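 Dogs were dosed IV or SC at 1 mL/kg with peptide at 3 nmol/mL in 10% DMSO/0.09% Polysorbate/PBS pH 7.4. K2-EDTA plasma was sampled to 336 h, and peptide was quantified by LCMS to derive half-life.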

As to `CC[C@H](C)[C@H](NC(=O)[C@H](CO)NC(=O)[C@H](Cc1ccc(O)cc1)NC(=O)[C@H](CC(=O)O)NC(=O)[C@H](CO)NC(=O)[C@@H](NC(=O)[C@H](Cc1ccccc1)NC(=O)[C@@H](NC(=O)CNC(=O)[C@H](CCC(=O)O)NC(=O)C(C)(C)NC(=O)[C@H](Cc1ccc(O)cc1)NC)[C@@H](C)O)[C@@H](C)CC)C(=O)N[C@@H](C)C(=O)N[C@@H](CCCCNC(=O)CNC(=O)CNC(=O)CNC(=O)CNC(=O)CNC(=O)CCCCCCCCCCCCCCCCC(=O)O)C(=O)N[C@@H](CC(=O)O)C(=O)N[C@@H](CCCNC(=N)N)C(=O)NC(C)(C)C(=O)N[C@@H](C)C(=O)N[C@@H](CCC(N)=O)C(=O)NC(C)(C)C(=O)N[C@@H](CC(N)=O)C(=O)N[C@@H](Cc1ccccc1)C(=O)N[C@H](C(=O)N[C@@H](CC(N)=O)C(=O)N[C@@H](Cc1c[nH]c2ccccc12)C(=O)N[C@@H](CC(C)C)C(=O)N[C@@H](CC(C)C)C(=O)N[C@@H](C)C(=O)N[C@@H](CCC(N)=O)C(=O)N[C@@H](CO)C(=O)N1CCC[C@H]1C(=O)N[C@@H](CO)C(=O)N[C@@H](CO)C(=O)NCC(=O)N[C@@H](C)C(=O)N1CCC[C@H]1C(=O)N1CCC[C@H]1C(=O)N1CCC[C@H]1C(=O)N[C@@H](CO)C(=O)O)C(C)C` [Compound 45, Me-Y-Aib-E-G-T-F-I-S-D-Y-S-I-A-Km-D-R-Aib-A-Q-Aib-N-F-V-N-W-L-L-A-Q-S-P-S-S-G-A-P-P-P-S-OH], the “Inhibition (%) of PYY-1119-induced emetic event” value with female beagle dogs was 90% (3 nmol/kg). For the same compound, the “% inhibition of emetic events at doses (nmol/kg) shown in dog apomorphine model” value in the series with Dogs (after 8 hrs (upper)) is reported as 70% (30 nmol/kg); with Dogs (after 72 hours (lower)), 72% (30 nmol/kg). Besides, the solubility is ≥ 15 mg/mL in “physchem” (pH 7.4) and ≥ 60 mg/mL in “physchem” (pH 7.4, aqueous buffer). Also, the half-life in series [1] (iv) is 62 h. The MRT last in series [1] (sc) worked out at 125 h.

A word on the solubility: it is how much of the substance goes into solution per volume. A higher solubility goes with a readily soluble substance. The half-life is the time in which the quantity being followed falls by half. Read a high half-life as slow decline. A word on the MRT last: it is the average time that molecules of a dose stay in the body.
